Values joined by “and” are separate entries in the source; they are usually repeats but may differ in a detail not shown here. Equal entries are not always repeated. “Also recorded” adds a separate entry of the source. Where two headings read alike, the source gives them in different places.
How the values were obtained:
Guinea-pig ileum [1] = experiment: Guinea-pig ileum induced contractions; details: for Type of activity: guinea-pig ileum; for IC50: inhibiting acetylcholine-induced contractions of the ileum
Source text: Guinea-pig ileum induced contractions
*This dose is the IC50 for inhibiting acetylcholineinduced
contractions of the ileum.

Guinea-pig ileum [2] = experiment: Guinea-pig ileum induced contractions; details: ileum contraction
[3] = target: central muscarinic receptors (M1) (Rattus norvegicus, UniProt P08482); experiment: biochemical; assay type: binding; set-up: IC50^1 :IC50^2: unit not given beside the values
Sequence of central muscarinic receptors (M1) (P08482 whole entry): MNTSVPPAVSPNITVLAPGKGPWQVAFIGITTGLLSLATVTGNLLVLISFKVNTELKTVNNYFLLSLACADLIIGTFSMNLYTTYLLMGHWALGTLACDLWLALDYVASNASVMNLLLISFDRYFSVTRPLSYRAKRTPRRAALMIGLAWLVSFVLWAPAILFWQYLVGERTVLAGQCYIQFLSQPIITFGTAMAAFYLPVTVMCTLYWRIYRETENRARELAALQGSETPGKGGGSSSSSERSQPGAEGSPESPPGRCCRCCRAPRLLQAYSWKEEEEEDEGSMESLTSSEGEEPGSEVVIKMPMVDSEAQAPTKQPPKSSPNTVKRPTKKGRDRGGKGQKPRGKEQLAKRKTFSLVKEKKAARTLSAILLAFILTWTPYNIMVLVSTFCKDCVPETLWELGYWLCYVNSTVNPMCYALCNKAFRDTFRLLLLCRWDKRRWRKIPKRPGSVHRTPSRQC

in vivo [4] = details: mouse, po
in vivo [5] = details: mouse, iv
[6] = Signs observed in rats after oral dose of 100 mg./kg.; assay type: in vivo; details: 100 mg./kg. oral
[7] = not given; remark: listed apart in the source
[8] = target: central muscarinic receptors (M1 and M2); assay type: binding, rat
[9] = Hypothermia-inducing activity in rats; details: AF102B at 80 mg./kg. p.o. and 60 mg./kg. i.p., oxotremorine 3.2 mg./kg. p.o. or 1.2 mg./kg. i.p.
[10] = Morris Swimming Maze in AF64A- and CSF-injected rats; assay type: in vivo, male Sprague Dawley rats; details: AF102B 1 mg./kg., ip, physostigmine 0.1 mg./kg.
Method: 38 male Sprague Dawley rats (raised by Charles River) 5-6 months old with an average weight of 500 g. were used. The rats were housed in groups of 5 and were given free access to food and water. Testing was carried out in a round white metal tub 1.4 m. diameter and 0.4 m. deep. The tub was filled with water, made opaque by milk powder to the level of 18 cm. A platform of 12 cm. diameter and at a height of 16 cm. was placed in the tub 2 cm. below water level. The platform was covered with gauze to prevent the animal from slipping back into the water after reaching the platform.
Prior to testing, the rat was placed on the platform for 120 secs., placed gently into the water, facing the wall of the pool, at one of four starting locations (north, south, east or west) around the pool's perimeter. Within each block of four trials, each rat was started at each of the four starting locations, with the sequence of starting locations randomly selected. Testing was carried out on 2 consecutive days with each rat submitted daily to eight trials. During trials 1-12 the platform was located in the center of the south-east quadrant and during trials 13-16 the platform was transferred to the center of the north-west quadrant. If in a particular trial the rat found the platform, it was permitted to remain on it for 60 secs. before starting the next trial. […] The latency to find the platform was measured.
For drug testing, rats were injected with AF64A or CSF (3 nmole/2 ul/side) as described in Experiment 2, above. The rats were subjected first to a step-through learning procedure (see Experiment 1, above) and were 3-3.5 months after injection when tested in the water maze. The rats were divided into 4 groups; 18 CSF-injected rats were treated either with physostigmine (0.1 mg./kg. ip) (10 rats) or with saline (8 rats). 20 AF64A-injected rats were divided similarly. The rats were injected with physostigmine immediately before testing on each day.
Forty male Sprague-Dawley rats (obtained from Charles River Breeding Laboratories U.K.), 5-6 months old, weighing 450-580 g. during the experiment served as subjects. Rats were housed in groups of 5 and were given free access to food and water. 2.5-3.5 months before behavioral testing, rats were injected with AF64A (3 nmole/2 ul/side) (20 rats-group 1) or CSF (20 rats-group 2) as described in the surgery procedure.
Each of the injected groups was randomly subdivided into two equal size treatment groups.

[11] = set-up: species or system Male Sprague-Dawley rats; details: rat, in vivo
[12] = LD50 of physostigmine (relative toxicity in rats); details: rat, in vivo, ip

In the case of `CC1(c2ccccc2)OC2(CS1)CN1CCC2CC1` (stereo not drawn) [(Ic), 2-methyl-2-phenylspiro(1,3-oxathiolane-5,3')quinuclidine], the Type of activity (Guinea-pig ileum [1]) is reported as “antagonist” and the IC50 (Guinea-pig ileum [1]) is reported as 2 µM.

With `C[C@@H]1O[C@]2(CS1)CN1CCC2CC1` (relative stereo) [AF102A] the EC50 (Guinea-pig ileum [2]) was over 10 µM, the IC50 [3] was 30 µM and the “IC50^1 :IC50^2” value ([3]; PNZ:QNB displacement ratio) was 0.43. The LD50 (in vivo [4]) was 102 mg/kg, the LD50 (in vivo [5]) was 40.4 mg/kg and the Mortality (mice, 78 mg./kg. per os) was 0/5. For the same compound, the Mortality (mice, 90 mg./kg. per os) was 2/5, the Mortality (mice, 104 mg./kg. per os) was 2/5 and the Mortality (mice, 120 mg./kg. per os) was 4/5. For the same compound, the Mortality (mice, 139 mg./kg. per os) was 5/5, the Mortality (mice, 160 mg./kg. per os) was 5/5 and the “time of death after oral administration” value (mice, approximate LD50 doses, oral) was 10 to 15 min. For the same compound, the “absorption by the enteric route” value (mice, inferred from i.v./oral LD50 ratio) was “efficient, rapid and apparently unaltered absorption”, the “effects considered characteristic of parasympatho- or cholinomimetic activity” value (mouse, in vivo) was “none of the test animals exhibited effects considered characteristic of parasympatho- or cholinomimetic activity” and the “onset of severe tremors after oral administration” value (mouse, in vivo, po) was 2 to 3 min. The “Signs observed in rats” value [6] was “spontaneous motor activity was slightly reduced; also recorded: mydriasis, with pupillary size being about three times that seen in controls; also recorded: sudden onset of a brief clonic convulsive seizure which 5 mins. later changed into periodic head twitching and tremors; also recorded: animals appeared somnolent, accompanied by partial loss of righting reflex, dyspnoeic and cyanotic, with very slight salivation and lachrymation; also recorded: full recovery occurred after several hours”, the mortality in rats [6] was “one animal, out of the group of three, which was found dead” and the time found dead ([6]; post-administration) was 40 min. For the same compound, the “muscarinic agonist activity (TABLES 1 and 2)” value (Guinea-pig ileum [1]; binding and ileum) was “almost one order of magnitude less active”, the Type of activity (Guinea-pig ileum [1]) was “agonist” and the Mortality ([7]; mice, 36.0 mg./kg. i.v.) was 2/6. The Mortality ([7]; mice, 37.9 mg./kg. i.v.) was 3/6, the Mortality ([7]; mice, 40.0 mg./kg. i.v.) was 2/6 and the Mortality ([7]; mice, 42.5 mg./kg. i.v.) was 4/6. The Mortality ([7]; mice, 45.0 mg./kg. i.v.) was 6/6, the “time of death after intravenous injection” value ([7]; mice, approximate LD50 doses, iv) was “about 30 secs” and the “onset of severe tremors after intravenous administration” value ([7]; mouse, in vivo, iv) was 10 s. It also gave an IC50 ([8]; read-out: IC50^2 for displacement of [^3 H]-QNB) of 70 µM.

For `O=C1CCCN1CC#CCN1CCCC1` [oxotremorine, reference compound], the cholinomimetic manifestation [9] was “full cholinomimetic syndrome associated with tonic-clonic convulsions”, the EC50 [3] was 0.8 µM and the IC50 [3] was 0.8 µM. For the same compound, the “IC50^1 :IC50^2” value [3] was 0.27 and the EC50 ([8]; summary table, read-out: EC50, [^3 H]--QNB-binding) was 3 µM.

In the case of `CNC(=O)Oc1ccc2c(c1)[C@]1(C)CCN(C)[C@@H]1N2C` [physostigmine, reference compound], the “effect in Morris Swimming Maze” value [10] is reported as “negative effect; also recorded: inhibited the decrease of the escape-latency curve”, the “effect in Morris Swimming Maze” value ([10]; listed as Physostigmine) is reported as “worsens; also recorded: apparently impaired the performance of both AF64A and CSF-injected groups” and the Initial-test latency [11] is reported as 25.50 ± 5.68 s and 29.70 ± 7.93 s. The “reversal of AF64A-induced memory impairments in passive avoidance” value [11] was “could be reversed”, the Retention-test latency ([11]; ip) was 458.90 ± 63.33 s and 576.10 ± 22.69 s and the Therapeutic index ([11]; ip) was 5-17 and 10-17. The “retention of passive avoidance (statistics)” value ([11]; ip) was “significantly longer, F(1,36)=5.91, p=0.05; also recorded: significantly improved; also recorded: the retention of the CSF-injected group was not affected” and the LD50 [12] was 1 to 2 mg/kg.

With `c1ccc(C(c2ccccc2)C2OC3(CS2)CN2CCC3CC2)cc1` (stereo not drawn) [(Ib), 2-diphenylmethylspiro(1,3-oxathiolane-5,3')quinuclidine] the Type of activity (Guinea-pig ileum [1]) was “antagonist” and the IC50 (Guinea-pig ileum [1]) was 0.02 µM.

For `C[C@@H]1OCC2(CN3CCC2CC3)O1` (stereo in doubt) [AF30, cis-2-methylspiro(1,3-dioxolane-4,3')quinuclidine, reference compound], the EC50 (Guinea-pig ileum [2]) was 4 µM, the “effects considered characteristic of parasympatho- or cholinomimetic activity” value (mice, oral or iv, tremors, salivation, lachrymation, diarrhoea, miosis) was “did exhibit such side effects” and the Type of activity (Guinea-pig ileum [1]) was “agonist”.
